According to patent publication US20080194701A1, “Bifunctional Enzyme with Y-Glutamylcysteine Synthetase and Glutathione Synthetase Activity and Uses Thereof” (priority 2004, published 2008):
Read-outs that look alike come from different tables or passages of the source.

Key:
E. coli GS = E. coli GS (Escherichia coli, UniProt P04425); settings: cited from earlier work; for Km: substrate Km
E. coli γ-GCS = E. coli γ-GCS (Escherichia coli, UniProt P0A6W9); settings: cited from earlier work; for Km: substrate Km; for Vmax: unit = 1 μmol product per hour
Human γ-GCS = target: T1, Human γ-GCS (Homo sapiens, UniProt P48506); settings: cited from earlier work; for Ki: read-out: Ki; for Km: substrate Km; for Vmax: unit = 1 μmol product per hour
T1 sequence (P48506 1-637): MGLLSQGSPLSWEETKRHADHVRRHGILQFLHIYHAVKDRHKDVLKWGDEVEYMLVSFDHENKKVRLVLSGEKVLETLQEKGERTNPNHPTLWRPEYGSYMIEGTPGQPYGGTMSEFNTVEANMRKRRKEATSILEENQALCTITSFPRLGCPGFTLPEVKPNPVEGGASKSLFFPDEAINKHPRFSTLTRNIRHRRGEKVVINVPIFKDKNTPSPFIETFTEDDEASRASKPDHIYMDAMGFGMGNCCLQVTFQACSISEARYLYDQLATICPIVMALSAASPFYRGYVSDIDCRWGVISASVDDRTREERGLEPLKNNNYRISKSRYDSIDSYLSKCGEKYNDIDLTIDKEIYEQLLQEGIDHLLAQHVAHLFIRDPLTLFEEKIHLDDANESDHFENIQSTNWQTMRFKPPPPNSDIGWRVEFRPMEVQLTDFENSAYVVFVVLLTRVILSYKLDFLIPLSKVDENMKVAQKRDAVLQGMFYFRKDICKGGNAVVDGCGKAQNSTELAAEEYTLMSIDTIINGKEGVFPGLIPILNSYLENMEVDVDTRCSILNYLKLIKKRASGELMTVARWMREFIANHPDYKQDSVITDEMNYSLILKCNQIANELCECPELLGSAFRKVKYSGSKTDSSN
T1 sequence (P48507 1-274 partner): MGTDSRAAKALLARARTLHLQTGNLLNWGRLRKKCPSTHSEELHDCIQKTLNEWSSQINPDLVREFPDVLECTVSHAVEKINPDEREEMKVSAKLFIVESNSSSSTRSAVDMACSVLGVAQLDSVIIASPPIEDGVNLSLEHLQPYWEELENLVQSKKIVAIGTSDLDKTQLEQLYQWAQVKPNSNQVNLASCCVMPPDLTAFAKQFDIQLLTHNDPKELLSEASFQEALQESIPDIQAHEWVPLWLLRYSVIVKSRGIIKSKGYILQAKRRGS

S. agalactiae γ-GCS-GS [1] = target: T2, S. agalactiae γ-GCS-GS (Streptococcus agalactiae serotype V, UniProt Q8DXM9); assay: γ-GCS activity assay based on ADP formation, S. agalactiae γ-GCS-GS; assay type: biochemical; parameters: corresponded to full-length S. agalactiae γ-GCS-GS with an N-terminal His8-tag; made in house; host or cells: E. coli SG13009 with pQE30-gshAB plus pREP4 or pRARE; settings: for Vmax: unit = 1 μmol product per hour
T2 sequence (Q8DXM9 1-750): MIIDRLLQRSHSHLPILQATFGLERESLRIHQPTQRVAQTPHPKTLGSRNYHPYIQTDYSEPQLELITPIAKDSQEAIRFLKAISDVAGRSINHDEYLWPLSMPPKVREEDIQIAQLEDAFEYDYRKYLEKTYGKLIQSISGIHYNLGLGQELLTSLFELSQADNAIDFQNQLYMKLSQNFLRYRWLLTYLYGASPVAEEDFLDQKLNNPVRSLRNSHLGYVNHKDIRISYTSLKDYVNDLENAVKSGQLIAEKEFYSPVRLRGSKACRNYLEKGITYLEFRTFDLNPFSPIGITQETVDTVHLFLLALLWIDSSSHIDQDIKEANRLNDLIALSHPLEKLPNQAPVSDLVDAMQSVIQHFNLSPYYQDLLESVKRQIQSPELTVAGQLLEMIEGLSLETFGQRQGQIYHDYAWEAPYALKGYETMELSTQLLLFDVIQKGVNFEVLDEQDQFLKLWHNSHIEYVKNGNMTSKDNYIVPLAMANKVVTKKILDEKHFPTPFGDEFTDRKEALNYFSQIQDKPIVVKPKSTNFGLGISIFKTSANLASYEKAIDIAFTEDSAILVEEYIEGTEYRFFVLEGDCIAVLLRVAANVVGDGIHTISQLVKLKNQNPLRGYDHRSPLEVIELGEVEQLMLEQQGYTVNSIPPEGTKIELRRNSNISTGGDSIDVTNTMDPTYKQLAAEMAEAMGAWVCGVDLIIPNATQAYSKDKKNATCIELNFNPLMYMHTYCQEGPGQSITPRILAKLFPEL
Protocol: In Table 1, a unit was defined as the amount of enzyme activity required to catalyze the formation of 1 μmol of product per hour. Specific activity was shown as units per mg protein. Activity was determined at 37° C. based on ADP formation in reaction mixtures containing L-glutamate and L-cysteine and using pyruvate kinase and lactate dehydrogenase to couple ADP formation to NADH oxidation, which was monitored at 340 nm.
Exp. Purif. 13, 268-276 (1998).
At set time points ranging from one to 30 minutes, 5 μl aliquots were removed and assayed for residual enzyme activity using the standard γ-GCS assay based on ADP formation.

Human γ-GCSc = target: T3, Human γ-GCSc (Homo sapiens, UniProt P48506); settings: catalytic subunit only, cited from earlier work; for Km: substrate Km
T3 sequence (P48506 1-637): T1 sequence (P48506 1-637)

S. mutans γ-GCS-GS = S. mutans γ-GCS-GS (Streptococcus mutans serotype c, UniProt Q8DW15); assay: γ-GCS activity of S. mutans γ-GCS-GS
Text: 3′ and 5′ […] 3′ and introduced unique Bgl II and Hind III sites (underlined), respectively.

E. faecalis γ-GCS-GS = E. faecalis γ-GCS-GS (Enterococcus faecalis, UniProt Q82ZG8); assay: γ-GCS activity of E. faecalis γ-GCS-GS
S. agalactiae γ-GCS-GS [2] = target: T2, S. agalactiae γ-GCS-GS; assay: GS activity assay based on ADP formation, S. agalactiae γ-GCS-GS; settings: GSH concentrations of up to 100 mM
Protocol: Transformed cells were grown, induced, and harvested by centrifugation, and were then broken using a French pressure cell. […] The column was equilibrated with 50 mM Tris HCl buffer, pH 7.4, containing 5 mM L-glutamate, 5 mM MgCl2, and 5 mM β-mercaptoethanol, and the high-speed supernatant was loaded. After washing the column with equilibration buffer to remove proteins lacking a His-tag, the expressed His8-tagged protein was eluted using the same buffer supplemented with 200 mM imidazole. Amount of γ-GCS activity was determined as described in Example 2. […] It was observed that the purified enzyme catalyzed both the γ-GCS and the GS reactions. Since the GS-specific activity was higher than the specific activity for any known GS enzyme, it was apparent that the expressed 85 kDa S. agalactiae protein (rather than a trace impurity), accounted for the observed GS activity. Using the pREP4 auxiliary plasmid instead of the pRARE plasmid gave somewhat lower yields (325 mg total protein vs. 442 mg protein using pRARE) but the specific activities of the γ-GCS activity (870 units/mg) and GS activities (1143 units/mg) were similar.
Results for E. coli GS are from H. Gushima et al. J. Appl. Biochem. 5, 210-218 (1983). Results for rat GS are from J. L. Luo et al. Biochem. Biophys. Res. Commun. 275, 577-581 (2000). Results for human GS are from R. Njalsson et al. Biochem. Biophys. Res. Commun. 289, 80-84 (2001) and R. Njalsson et al. Biochem. J. 349, 275-279 (2000).

Human GS = target: T4, Human GS (Homo sapiens, UniProt P48637); settings: cited from earlier work
T4 sequence (P48637 1-474): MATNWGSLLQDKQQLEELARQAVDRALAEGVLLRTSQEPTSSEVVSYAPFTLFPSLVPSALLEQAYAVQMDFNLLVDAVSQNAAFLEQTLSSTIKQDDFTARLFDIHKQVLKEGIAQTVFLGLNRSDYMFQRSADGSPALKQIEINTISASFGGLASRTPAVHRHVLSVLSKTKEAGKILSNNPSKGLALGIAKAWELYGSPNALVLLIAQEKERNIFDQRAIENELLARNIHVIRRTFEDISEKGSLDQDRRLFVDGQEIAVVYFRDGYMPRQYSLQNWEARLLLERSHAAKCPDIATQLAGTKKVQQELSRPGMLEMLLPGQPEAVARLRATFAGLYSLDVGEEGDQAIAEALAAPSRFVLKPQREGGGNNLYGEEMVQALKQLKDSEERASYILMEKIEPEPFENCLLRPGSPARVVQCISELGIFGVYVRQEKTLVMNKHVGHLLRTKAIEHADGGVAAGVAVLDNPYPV

Rat GS = target: T5, Rat GS (Rattus norvegicus, UniProt P46413); settings: cited from earlier work
T5 sequence (P46413 1-474): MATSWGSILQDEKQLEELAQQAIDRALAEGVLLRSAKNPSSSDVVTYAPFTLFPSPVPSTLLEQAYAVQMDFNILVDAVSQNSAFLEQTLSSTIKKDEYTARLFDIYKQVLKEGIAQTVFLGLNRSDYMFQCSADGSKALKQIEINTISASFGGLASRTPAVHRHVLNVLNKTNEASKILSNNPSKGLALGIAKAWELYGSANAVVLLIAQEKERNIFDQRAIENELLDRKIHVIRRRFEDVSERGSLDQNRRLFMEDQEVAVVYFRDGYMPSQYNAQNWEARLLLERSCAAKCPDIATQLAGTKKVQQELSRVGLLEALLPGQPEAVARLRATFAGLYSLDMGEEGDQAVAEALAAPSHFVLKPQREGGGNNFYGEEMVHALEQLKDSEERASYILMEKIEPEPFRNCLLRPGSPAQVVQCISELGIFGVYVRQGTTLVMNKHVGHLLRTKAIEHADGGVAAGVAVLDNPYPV

N[C@@H](CS)C(=O)O = assay: purified protein, by the assay type; settings: other: substrate Km, γ-GCS activity
Protocol: Expression yielded less soluble protein than seen with S. agalactiae and E. faecalis γ-GCS-GS, but the enzyme was nonetheless isolated in about 10% purity as judged by Coomasie blue stained SDS-PAGE gels. Although both γ-GCS and GS activities were determined to be present, only the γ-GCS activity has been characterized to date in terms of substrate affinities.

[3] = MSO also pre-incubated with MgATP, absence of L-glutamate

Sequence of S. mutans γ-GCS-GS (Q8DW15 whole entry): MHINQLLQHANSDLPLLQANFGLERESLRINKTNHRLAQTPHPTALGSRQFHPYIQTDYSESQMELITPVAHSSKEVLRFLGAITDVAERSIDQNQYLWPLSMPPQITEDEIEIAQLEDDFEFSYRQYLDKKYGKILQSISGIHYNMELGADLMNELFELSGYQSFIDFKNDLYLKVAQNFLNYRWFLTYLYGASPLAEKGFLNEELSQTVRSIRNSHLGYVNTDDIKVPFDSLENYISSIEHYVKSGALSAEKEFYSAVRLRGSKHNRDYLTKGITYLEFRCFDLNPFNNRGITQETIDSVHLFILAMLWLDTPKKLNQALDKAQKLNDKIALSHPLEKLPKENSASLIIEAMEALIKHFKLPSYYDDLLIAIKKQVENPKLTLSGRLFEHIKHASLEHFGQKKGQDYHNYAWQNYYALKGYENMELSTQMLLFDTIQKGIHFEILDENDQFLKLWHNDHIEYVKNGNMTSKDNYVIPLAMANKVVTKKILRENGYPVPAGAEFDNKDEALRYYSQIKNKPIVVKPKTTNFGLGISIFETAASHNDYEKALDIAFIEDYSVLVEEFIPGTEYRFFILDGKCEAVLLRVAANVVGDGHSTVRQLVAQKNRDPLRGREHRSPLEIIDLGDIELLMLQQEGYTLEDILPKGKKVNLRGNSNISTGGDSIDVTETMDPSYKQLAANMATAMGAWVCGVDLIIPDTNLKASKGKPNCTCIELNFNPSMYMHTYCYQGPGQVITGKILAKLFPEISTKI
Sequence of E. coli GS (P04425 whole entry): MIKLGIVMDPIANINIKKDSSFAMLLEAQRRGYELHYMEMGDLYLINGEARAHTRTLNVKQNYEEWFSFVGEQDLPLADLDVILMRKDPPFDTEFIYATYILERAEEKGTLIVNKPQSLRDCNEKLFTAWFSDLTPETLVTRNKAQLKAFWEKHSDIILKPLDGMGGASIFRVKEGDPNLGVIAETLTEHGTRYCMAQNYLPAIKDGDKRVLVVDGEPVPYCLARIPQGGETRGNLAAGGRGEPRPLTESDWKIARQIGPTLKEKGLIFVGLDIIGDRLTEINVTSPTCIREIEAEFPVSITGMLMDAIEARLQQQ
Sequence of E. coli γ-GCS (P0A6W9 whole entry): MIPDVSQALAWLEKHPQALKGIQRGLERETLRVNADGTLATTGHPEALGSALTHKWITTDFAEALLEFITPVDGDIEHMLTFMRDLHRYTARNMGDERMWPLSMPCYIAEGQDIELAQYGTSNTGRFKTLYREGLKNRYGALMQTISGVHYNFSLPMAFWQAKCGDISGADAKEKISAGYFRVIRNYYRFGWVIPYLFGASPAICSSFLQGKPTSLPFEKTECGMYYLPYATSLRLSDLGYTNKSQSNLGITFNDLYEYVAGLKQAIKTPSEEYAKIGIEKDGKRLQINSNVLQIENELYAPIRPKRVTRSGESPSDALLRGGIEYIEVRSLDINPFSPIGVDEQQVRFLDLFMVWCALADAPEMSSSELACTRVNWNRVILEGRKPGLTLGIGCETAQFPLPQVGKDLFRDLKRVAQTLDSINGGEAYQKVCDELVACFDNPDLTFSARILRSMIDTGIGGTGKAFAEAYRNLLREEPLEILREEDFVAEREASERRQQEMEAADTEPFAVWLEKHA

Molecule: N[C@@H](CCC(=O)N[C@@H](CS)C(=O)O)C(=O)O [L-γ-glutamyl-L-cysteine]
- Vmax (E. coli GS): 650 units/mg
- Km (E. coli GS): 2600 µM

Molecule: NCCSSCCN [Cystamine, reference compound]
- Ki (E. coli γ-GCS): no inhibition
- Ki (Human γ-GCS): 2 mM
- inhibition of γ-GCS activity (S. agalactiae γ-GCS-GS [1]): no reproducibly measurable inhibition
- Ki (S. agalactiae γ-GCS-GS [1]; inhibition of γ-GCS activity, initial reversible binding): no inhibition

Molecule: CC[C@H](N)C(=O)O [L-α-aminobutyrate]
- Km (E. coli γ-GCS): 3900 ± 400 µM
- Vmax (E. coli γ-GCS): 2970 ± 120 units/mg
- Km (Human γ-GCS): 1300 µM
- Vmax (Human γ-GCS): ~1500 units/mg
- Vmax (Human γ-GCSc): ~1250 units/mg
- Km (Human γ-GCSc): 1700 µM
- Km (S. agalactiae γ-GCS-GS [1]; substrate Km, γ-GCS activity): 8300 ± 1000 µM
- Vmax (S. agalactiae γ-GCS-GS [1]; γ-GCS activity): 1148 ± 73 units/mg

Molecule: N[C@@H](CCC(=O)O)C(=O)O [L-glutamate]
- Km (E. coli γ-GCS): 1900 ± 200 µM
- Vmax (E. coli γ-GCS): 3170 ± 125 units/mg
- Km (Human γ-GCS): 1900 ± 200 µM
- Vmax (Human γ-GCS): ~1500 units/mg
- Km (S. mutans γ-GCS-GS; substrate Km, γ-GCS activity): 17000 ± 1000 µM
- Vmax (Human γ-GCSc): ~1250 units/mg
- Km (Human γ-GCSc): 3200 ± 100 µM
- Km (E. faecalis γ-GCS-GS; substrate Km, γ-GCS activity): 79000 ± 14000 µM
- Km (S. agalactiae γ-GCS-GS [1]): 23000 ± 2000 µM
- Vmax (S. agalactiae γ-GCS-GS [1]; γ-GCS activity): 1341 ± 145 units/mg

Molecule: N[C@@H](CCC(=O)N[C@@H](CS)C(=O)NCC(=O)O)C(=O)O [GSH, L-γ-glutamyl-L-cysteinylglycine, reference compound]
- Ki (E. coli γ-GCS; read-out: Ki): 2.7 mM
- Ki (Human γ-GCS): 5.8 mM
- Ki (S. mutans γ-GCS-GS): 67 ± 0.8 mM
- inhibition of GS activity (S. agalactiae γ-GCS-GS [2]): does not significantly inhibit
- Ki (E. faecalis γ-GCS-GS): 25.1 ± 0.8 mM
- Ki (S. agalactiae γ-GCS-GS [1]): no inhibition

Molecule: CP(=O)(O)CCC(N)C(=O)O.N (centres unmarked) [glufosinate (ammonium salt), glufosinate ammonium]
- inhibition of the γ-GCS activity (in words) (S. agalactiae γ-GCS-GS [1]; [3]): moderately good inhibitors
- Ki (S. agalactiae γ-GCS-GS [1]; inhibition of γ-GCS activity, initial reversible binding, read-out: Ki): 29 mM

Molecule: NCC(=O)O [glycine]
- Vmax (Human GS): 361 ± 84 units/mg
- Km (Human GS; substrate Km): 1300 ± 300 µM
- Vmax (E. coli GS): 650 units/mg
- Km (E. coli GS): 2000 µM
- Vmax (Rat GS): 678 units/mg
- Km (Rat GS; substrate Km): 913 µM

Molecule: CS(=N)(=O)CC[C@H](N)C(=O)O (mixture of isomers) [L-Methionine-S,R-sulfoximine]
- Ki (S. agalactiae γ-GCS-GS [1]): > 100 mM
- inhibition of the γ-GCS activity (in words) (S. agalactiae γ-GCS-GS [1]; [3]): no significant inhibition

Molecule: S. mutans γ-GCS-GS (Streptococcus mutans UA159)
- Km (N[C@@H](CS)C(=O)O): 144 ± 4 µM

Molecule: NC(CCCP(=O)(O)O)C(=O)O (racemic) [D,L-2-amino-5-phosphonovaleric acid]
- Ki (S. agalactiae γ-GCS-GS [1]): > 100 mM
- inhibition of the γ-GCS activity (in words) (S. agalactiae γ-GCS-GS [1]): not effective

Molecule: N[C@@H](CS)C(=O)O [L-cysteine]
- Vmax (E. coli γ-GCS): 3590 ± 200 units/mg
- Km (Human γ-GCS): 100 ± 20 µM
- Vmax (Human γ-GCS): ~1500 units/mg
- Vmax (Human γ-GCSc): ~1250 units/mg
- Km (Human γ-GCSc): 130 ± 10 µM

Molecule: NC(CCP(=O)(O)O)C(=O)O (racemic) [D,L-2-amino-4-phosphonobutyric acid]
- Ki (S. agalactiae γ-GCS-GS [1]): 13 mM
- inhibition of the γ-GCS activity (in words) (S. agalactiae γ-GCS-GS [1]; [3]): moderately good inhibitors
